A short description of this series: solvent given as SMILES.

As for `COc1ccccc1CC(=O)OCc1c(C)c(=O)n2c(=O)c(C)c(C)n12`, for the setting “in CCO”, the emission maximum is reported as 461 nm. `CC(C)CCCC(C)CCN1C(=O)c2ccc3c(-c4ccccc4)c4c5ccc6c7c(ccc(c(-c8ccccc8)c4c4ccc(c2c34)C1=O)c75)C(=O)N(CCC(C)CCCC(C)C)C6=O` (stereo unspecified) displayed an emission maximum (in ClCCl) of 704 nm. `Fc1nc(F)c(F)c(C#Cc2nccnc2C#Cc2c(F)c(F)nc(F)c2F)c1F`: the emission maximum (in CC#N) came out at 440 nm. In the case of `CCCCCCCCCc1c2ccccc2cc2c1oc1c3c(c4ccccc4c12)-c1c(c2oc4cc5ccccc5cc4c2c2ccccc12)OCO3`, the emission maximum (in C1CCOC1) was 416 nm. `N#Cc1cc(/C=C/c2ccc(N(c3ccccc3)c3ccccc3)cc2)ccc1/C=C/c1ccc(/C=C/c2ccc(N(c3ccccc3)c3ccccc3)cc2)cc1C#N` had an emission maximum (in ClCCl) of 614 nm. In turn, `CCCCCCCCc1ccc(-c2ccc(/C=C(\C#N)c3ccc(-c4cccc5cccc(-c6ccc(/C(C#N)=C/c7ccc(-c8ccc(CCCCCCCC)cc8)cc7)cc6)c45)cc3)cc2)cc1` gave an emission maximum (in Cc1ccccc1) of 491 nm. Molecule `CC1(C)c2ccccc2-c2ccc(N(c3ccccc3)c3ccc4c(c3)C(C)(C)c3cc(-c5cc6ccccc6c6c5oc5ccccc56)ccc3-4)cc21` showed an emission maximum (in C1CCOC1) of 469 nm. As to `CCN1c2ccc(/C=N/Nc3ccccn3)cc2Sc2cc(/C=N/Nc3ccccn3)ccc21`, the emission maximum is, setting by setting: (in C1CCOC1) 495 nm; (in CS(C)=O) 507 nm; (in Cc1ccccc1) 491 nm; (in ClCCl) 498 nm. Turning to `CCCCCCN(c1ccccc1)c1ccc(/C=C/c2cc(=O)oc3cc(C)ccc23)cc1`, the emission maximum is recorded as 583 nm (in CS(C)=O) and 544 nm (in ClC(Cl)Cl). With `CC1=CC(C)=[N+]2C1=C(c1ccccc1)c1c(C)c(-c3cccs3)c(C)n1[B-]2(F)F`, the emission maximum by setting is: (in CO) 600 nm; (in Cc1ccccc1) 591 nm; (in ClCCl) 594 nm.

As for `N#CC(/N=C/c1ccccc1O)=C(C#N)/N=C/c1ccccc1O`, the emission maximum (in CC#N) is reported as 553 nm. Turning to `CNc1ccc2nc3cc(Cl)c(Cl)cc3nc2c1`, the emission maximum (in CCO) was 599 nm. The molecule `C1=C(c2ccc(-c3cccs3)s2)CCC(c2ccccc2)C1` (stereo unspecified) had an emission maximum (in C1CCOC1) of 412 nm; an emission maximum (in CC#N) of 411 nm; an emission maximum (in CCCCCC) of 409 nm; an emission maximum (in CCO) of 411 nm; an emission maximum (in OCCOCCO) of 412 nm; an emission maximum (in c1ccncc1) of 417 nm.

Where the note is “in O”, `Clc1ccc2cc3cccc[n+]3cc2c1` gave an emission maximum of 408 nm.

As for `O=c1c2cc(F)c(O)cc2oc2cc(O)c(F)cc12`, the emission maximum (in CCO) worked out at 439 nm. Take `CC(C)(C)c1ccc(-c2nnc(-c3c(-n4c5ccccc5c5ccccc54)c(-n4c5ccccc5c5ccccc54)c(-n4c5ccccc5c5ccccc54)c(-n4c5ccccc5c5ccccc54)c3-n3c4ccccc4c4ccccc43)o2)cc1`: where the note is “in Cc1ccccc1”, the emission maximum turned out to be 482 nm. On to `N#Cc1c(N2CCCCC2)cc(-c2cccc3ccccc23)c2c1-c1ccccc1C2=O`, for which the emission maximum (in C1CCOC1) was 526 nm. As for `c1ccc2c(c1)c1ccccc1n2-c1ccc2c(c1)c1ccccc1n2-c1ccc(-n2c3ccccc3c3cc(-n4c5ccccc5c5ccccc54)ccc32)cc1`, the emission maximum is, setting by setting: (in C1CCOC1) 372 nm; (in CC(C)=O) 379 nm; (in Cc1ccccc1) 372 nm; (in ClCCl) 383 nm.

`CN(C)c1ccc(C2=Nc3sc4c(F)c(F)c(F)c(F)c4[n+]3[B-](F)(F)O2)cc1`: the emission maximum (in C1CCOC1) is 492 nm, the emission maximum (in CC#N) is listed as 503 nm, the emission maximum (in Cc1ccccc1) was determined as 464 nm and the emission maximum (in ClCCl) stood at 483 nm. For `CCCCCCN1C(=O)c2cccc3cc(/N=C\c4ccc(N(c5ccccc5)c5ccccc5)cc4)cc(c23)C1=O`, for the setting “in ClC(Cl)Cl”, the emission maximum was determined as 565 nm. As to `COc1cc2c(cc1OC)C1=C[C@H](c3ccc(Cl)cc3)C3(C(C#N)=C(C#N)N1CC2)c1ccccc1-c1ccccc13`, where the note is “in ClCCl”, the emission maximum is given as 405 nm.

`COc1ccccc1C1=[N+]2C(=C(c3ccccc3)c3c4c(c(-c5ccccc5OC)n3[B-]2(F)F)C2C=CC4CC2)C2=C1C1C=CC2CC1` (stereo unspecified): the emission maximum (in ClCCl) was 587 nm. Under “in CCO”, `CC(C)(C)OC(=O)NCCCC(=O)OCc1ccc2c3cccc4cccc(c5cccc1c52)c43` registered an emission maximum of 446 nm. For `O=c1oc2ccccc2c2c1c(=O)oc1ccc3ccc(O)cc3c12`, the emission maximum is, setting by setting: (in CS(C)=O) 506 nm; (in ClCCl) 517 nm. `COc1ccc2c(c1)C(C)(C)c1c-2c2ccc(OC)cc2c2cc(OC)ccc12`: the emission maximum (in C1CCCCC1) worked out at 398 nm. In turn, `CCCCCCCCCCCC#CC#CCCCCCCCCCN1C(=O)c2ccc3c4ccc5c6c(ccc(c7ccc(c2c37)C1=O)c64)C(=O)N(CCCCCCCCCC#CC#CCCCCCCCCCCCC)C5=O` displayed an emission maximum (in ClC(Cl)Cl) of 535 nm. As for `N#CC1=C(N)n2c(=O)c3ccccc3c(=O)n2C1c1ccccc1` (stereo unspecified), for the setting “in CS(C)=O”, the emission maximum is listed as 438 nm. Take `CC(C)(C)/C=C1\C=C(c2ccccc2)C=C1c1ccccc1`: the emission maximum (in C1CCOC1) is listed as 460 nm. Regarding `Cc1cccc2nc3c(=O)n(C)c(=O)nc-3n(C)c12`, the emission maximum (in CC#N) was 532 nm.

As for `Cc1cccc2nc(-c3ccc(-c4cc(=O)cc(-c5ccccc5)o4)cc3)c(NC3CCCCC3)n12`, the emission maximum (in ClCCl) came to 506 nm. `CCCCCCN1C(=O)c2cccc3c(-c4ccc(Cl)s4)ccc(c23)C1=O`: the emission maximum (in ClC(Cl)Cl) was 482 nm. `Cc1cc(N(C)C)ccc1C1=C2C=CC(=[N+](C)C)C=C2[Si](C)(C)c2cc(N(C)C)ccc21`: the emission maximum (in O) worked out at 663 nm. On to `c1ccc(N2c3ccccc3Sc3cc(-c4cccc5nc6ccccc6cc45)ccc32)cc1`, for which the emission maximum by setting is: (in C1CCOC1) 476 nm; (in CC#N) 504 nm; (in CC(C)=O) 495 nm; (in CC(C)OC(C)C) 546 nm; (in CCCCCC) 487 nm; (in CCCCOCCCC) 533 nm. In addition, the emission maximum by setting is: (in CCN(CC)CC) 525 nm; (in CCOC(C)=O) 474 nm; (in CCOCC) 549 nm; (in CN(C)C=O) 495 nm; (in ClCCl) 483 nm. As for `CCN(CC)c1ccc2cc(C#N)/c(=N\C(=O)c3ccccc3)oc2c1`, the emission maximum is, setting by setting: (in CCO) 472 nm; (in ClCCl) 460 nm.

In the case of `c1ccc(N(c2ccccc2)c2ccc(-c3nc4c5ccccc5c5ccccc5c4n3-c3ccccc3)cc2)cc1`, under “in ClCCl”, the emission maximum is given as 468 nm. `COc1ccc(C2=Cc3c4ccccc4c4ccccc4[n+]3[B-](F)(F)O2)cc1` returned an emission maximum (in ClC(Cl)Cl) of 461 nm. Turning to `CCCCc1ccc2c(c1)c1cc(CCCC)ccc1n2-c1ccc(S(=O)(=O)c2ccc(S(=O)(=O)c3ccc(-n4c5ccc(CCCC)cc5c5cc(CCCC)ccc54)cc3)cc2)cc1`, the emission maximum is, setting by setting: (in Cc1ccccc1) 450 nm; (in c1cc(-n2c3ccccc3c3ccccc32)nc(-n2c3ccccc3c3ccccc32)c1) 467.24 nm. The molecule `COC(=O)c1c(NC(C)(C)C)oc(-c2ccc(-c3ccccc3)cc2)c1C(=O)OC` returned an emission maximum (in CC#N) of 446 nm. Under “in Cc1ccccc1”, `CCCCN1C(=O)c2cccc3c(N(C)C)ccc(c23)C1=O` registered an emission maximum of 486 nm. `O=S(=O)(c1ccc2c(c1)c1ccccc1n2-c1ccccc1)c1ccc2c(c1)c1ccccc1n2-c1ccccc1`: the emission maximum (in ClCCl) is given as 372 nm. For the molecule `COc1ccc(C2=[N+]3C(=Nc4c(-c5ccccc5)c5c(n4[B-]3(F)F)-c3ccc(OC)cc3CC5)C(c3ccccc3)=C2)cc1`, the emission maximum (in ClC(Cl)Cl) came to 732 nm.

The molecule `Cc1cc(-n2c3ccccc3c3cc4c(cc32)C2c3ccccc3C4c3ccccc32)c(C)cc1-c1nc(-c2ccccc2)nc(-c2ccccc2)n1` showed an emission maximum (in Cc1ccccc1) of 427 nm and an emission maximum (in O=P(c1ccccc1)(c1ccccc1)c1ccccc1Oc1ccccc1P(=O)(c1ccccc1)c1ccccc1) of 442 nm. Consider `O[Si](c1c2ccccc2cc2ccccc12)(c1c2ccccc2cc2ccccc12)c1c2ccccc2cc2ccccc12`, for which the emission maximum (in ClC(Cl)Cl) is given as 434 nm. In the case of `O=C1c2cc3ccccc3cc2C2=Nc3cccc[n+]3[B-](F)(F)N12`, the emission maximum (in ClCCl) is reported as 414 nm.

`Cc1cc(-c2ccc3ccccc3c2)cc(C)[o+]1` yielded an emission maximum (in ClCCl) of 544 nm.

For the setting “in ClCCl”, `CCOC(=O)c1c(-c2cc3cc4c(cc3oc2=O)OC(C)(C)CC4)nn(-c2ccccc2)c1C(=O)OCC` came in with an emission maximum of 430 nm. For the molecule `COc1ccc(C2=[O+][B-](F)(F)OC(c3ccc4c(c3)Cc3ccccc3-4)=C2)cc1`, the emission maximum (in CC#N) was 466 nm. With `C(#Cc1ccc(N(c2ccc(C#Cc3ccc(-c4cc(-c5ccccc5)nc(-c5ccccc5)c4)cc3)cc2)c2ccc(C#Cc3ccc(-c4cc(-c5ccccc5)nc(-c5ccccc5)c4)cc3)cc2)cc1)c1ccc(-c2cc(-c3ccccc3)nc(-c3ccccc3)c2)cc1`, the emission maximum by setting is: (in C1CCOC1) 455 nm; (in Cc1ccccc1) 426 nm. Take `COc1ccc2c3ccc(OC)cc3n(-c3ccc(-c4nnc(-c5c(C)cc(C)cc5C)o4)cc3C)c2c1`: for the setting “in Cc1ccccc1”, the emission maximum is 436 nm.

`COc1ccc2c(c1)c1c(c3cc(OC)ccc32)=[N+]2C(=C(c3c(C)cc(C)cc3C)c3cc4c5cc(OC)ccc5c5ccc(OC)cc5c4n3[B-]2(F)F)C=1` came in with an emission maximum (in C1CCCCC1) of 710 nm; an emission maximum (in C1CCOC1) of 713 nm; an emission maximum (in CC#N) of 711 nm; an emission maximum (in Cc1ccccc1) of 717 nm; an emission maximum (in ClCCl) of 713 nm. On to `CN(C)c1ccc(/C=C/c2ccc(-c3nnc(-c4ccc(-c5cc6ccccc6s5)cc4)o3)cc2)cc1`, for which the emission maximum runs as follows: (in CC#N) 397 nm; (in CC(C)=O) 395 nm; (in CCCCCCCC) 387 nm; (in CCCCCCCCCCO) 394 nm; (in CCCCCCCCO) 398 nm; (in CCCCCO) 399 nm. Moreover, the emission maximum reads like this: (in CCCO) 399 nm; (in CN(C)C=O) 401 nm; (in CO) 404 nm; (in CS(C)=O) 408 nm.

For the origin of these results see the Deep4Chem optical property database.
